Conditions: Liquid, Transpiration method

OCc1ccccc1 [benzenemethanol]
Conditions | vapor or sublimation pressure [kPa]
282.9 K | 0.00306
285.9 K | 0.00407
288.9 K | 0.00532
292.1 K | 0.00738
295.3 K | 0.00983
298.2 K | 0.01251
301.2 K | 0.01645
302.8 K | 0.01923
305.8 K | 0.02541
308.8 K | 0.03192
311.7 K | 0.03999
314.9 K | 0.05172
318.1 K | 0.06709
321.1 K | 0.08348

CC(C)(C)OCc1ccccc1 [ether, benzyl tert-butyl]
Conditions | vapor or sublimation pressure [kPa]
277.8 K | 0.00512
278.1 K | 0.00528
279.1 K | 0.00577
281.3 K | 0.00698
282.9 K | 0.00797
284.3 K | 0.00893
286.2 K | 0.01095
287.3 K | 0.01177
287.8 K | 0.01209
288.2 K | 0.0131
290 K | 0.01485
292.2 K | 0.0182
293 K | 0.01888
293.2 K | 0.01908
295.2 K | 0.02312
296.2 K | 0.02445
297.2 K | 0.02652
298 K | 0.02843
298.2 K | 0.02924
299.2 K | 0.03085
300.3 K | 0.03419
302.2 K | 0.03875
303.1 K | 0.04177
303.2 K | 0.04305
308 K | 0.05754
